Laboratory results as given in patent US7531540B2, “Phthalazinone-piperidino-derivatives as PDE4 inhibitors” (Nycomed GmbH, priority 2001, dated 2009).

Legend:
PDE4 = assay: Inhibition of PDE4 activity ([3H]cAMP hydrolysis, cytosol from human neutrophils); format: biochemical; conditions: 0.5 μM cAMP, Motapizone (1 μM) included to suppress PDE3 activity, 15 min at 37° C.
Protocol: Method for Measuring Inhibition of PDE4 Activity
PDE4 activity was determined as described by Thompson et al. (Adv Cycl Nucl Res 10: 69-92, 1979) with some modifications (Bauer and Schwabe, Naunyn-Schmiedeberg's Arch Pharmacol 311: 193-198, 1980). At a final assay volume of 200 μl (96 well microtiter plates) the assay mixture contained 20 mM Tris (pH 7.4), 5 mM MgCl2, 0.5 μM cAMP, [^3H]cAMP (about 30,000 cpm/assay), the test compound and an aliquot of cytosol from human neutrophils which mainly contains PDE4 activity as described by Schudt et al. (Naunyn-Schmiedeberg's Arch Pharmacol 344: 682-690, 1991); the PDE3-specific inhibitor Motapizone (1 μM) was included to suppress PDE3 activity originating from contaminating platelets. Serial dilutions of the compounds were prepared in DMSO and further diluted 1:100 (v/v) in the assays to obtain the desired final concentrations of the inhibitors at a DMSO concentration of 1% (v/v) which by itself only slightly affected PDE4 activity.
After preincubation for 5 min at 37° C., the reaction was started by the addition of substrate (cAMP) and the assays were incubated for further 15 min at 37° C. 50 μl of 0.2 N HCl was added to stop the reaction and the assays were left on ice for about 10 min. Following incubation with 25 μg 5′-nucleotidase (Crotalus atrox snake venom) for 10 min at 37° C., the assays were loaded on QAE Sephadex A-25 (1 ml bed volume). The columns were eluted with 2 ml of 30 mM ammonium formiate (pH 6.0) and the eluate was counted for radioactivity. Results were corrected for blank values (measured in the presence of denatured protein) which were below 5% of total radioactivity. […] The IC50 -values for the compounds according to the invention for the inhibition of the PDE4 activity were determined from the concentration-inhibition curves by nonlinear-regression.
The inhibitory values determined for the compounds according to the invention follow from the following table A, in which the numbers of the compounds correspond to the numbers of the examples.

COc1ccc(C2=NN(C3CCN(C(=O)N4CCOCC4)CC3)C(=O)[C@@H]3CC=CC[C@H]23)cc1OC [compound 13, (4aS,8aR)-4-(3,4-Dimethoxyphenyl)-2-[1-(morpholine-4-carbonyl)-piperidin-4-yl]-4a,5,8,8a-tetrahydro-2H-phthalazin-1-one]
Inhibition of PDE4 acitivity [measured as -logIC50 (mol/l)] (PDE4): 10.03
melting point: 184 to 185 °C

COc1ccc(C2=NN(C3CCN(c4ccc([N+](=O)[O-])cc4)CC3)C(=O)[C@@H]3CC=CC[C@H]23)cc1OC [compound 11, (4aS,8aR)-4-(3,4-Dimethoxyphenyl)-2-[1-(4-nitro-phenyl)-piperidin-4-yl]-4a,5,8,8a-tetrahydro-2H-phthalazin-1-one]
Inhibition of PDE4 acitivity [measured as -logIC50 (mol/l)] (PDE4): 10.34
melting point: 196 to 197 °C
